# Source: patent publication US20260130395A1, “Water Dispersible Botanical Compositions” (Aquila Black Limited, priority 2021, published 2026)
# Experiments:
# [1] = Stability of cannabinoid entourage and Vitamin E components of the powder concentrate by LCMSMS; format: physicochemical; details: powder stored at 21-25° C.
# Method: At each time period, 0.05 g of powder was dissolved in 10 ml-15 of ethanol, diluted to fall within the analytical range, and injected into the LCMSMS for analysis.
# [2] = Stability of cannabinoid compounds and Vitamin E components in Beverage 1 (AB White) by LCMSMS; format: physicochemical
smiles,measurement,setting,value
Cc1c(C)c2c(c(C)c1OC(=O)CCC(=O)O)CC[C@@](C)(CCC[C@H](C)CCC[C@H](C)CCCC(C)C)O2 [α-Tocopheryl succinate],Stability of Vitamin Es in Powder Concentrate,[1]; 0 days,1.82 mg/g powder
same,Stability of Vitamin Es in Powder Concentrate,[1]; 1 days,1.81 mg/g powder
same,Stability of Vitamin Es in Powder Concentrate,[1]; 2 days,1.81 mg/g powder
same,Stability of Vitamin Es in Powder Concentrate,[1]; 3 days,1.81 mg/g powder
same,Stability of Vitamin Es in Powder Concentrate,[1]; 5 days,1.83 mg/g powder
same,Stability of Vitamin Es in Powder Concentrate,[1]; 8 days,1.90 mg/g powder
same,Stability of Vitamin Es in Powder Concentrate,[1]; 9 days,1.89 mg/g powder
same,Stability of Vitamin Es in Powder Concentrate,[1]; 10 days,1.87 mg/g powder
same,Stability of Vitamin Es in Powder Concentrate,[1]; 11 days,1.89 mg/g powder
same,Stability of Vitamin Es in Powder Concentrate,[1]; 12 days,1.87 mg/g powder
same,Stability of Vitamin Es in Powder Concentrate,[1]; 15 days,1.87 mg/g powder
same,Stability of Vitamin Es in Powder Concentrate,[1]; 16 days,1.83 mg/g powder
same,Stability of Vitamin Es in Powder Concentrate,[1]; 17 days,1.88 mg/g powder
same,Stability of Vitamin Es in Powder Concentrate,[1]; 18 days,1.77 mg/g powder
same,Stability of Vitamin Es in Powder Concentrate,[1]; 19 days,1.85 mg/g powder
same,Stability of Vitamin Es in Powder Concentrate,[1]; 22 days,1.78 mg/g powder
same,Stability of Vitamin Es in Powder Concentrate,[1]; 23 days,1.80 mg/g powder
same,Stability of Vitamin Es in Powder Concentrate,[1]; 24 days,1.90 mg/g powder
same,Stability of Vitamin Es in Powder Concentrate,[1]; 25 days,1.90 mg/g powder
same,Stability of Vitamin Es in Powder Concentrate,[1]; 26 days,1.76 mg/g powder
same,Stability of Vitamin Es in Powder Concentrate,[1]; 29 days,1.87 mg/g powder
same,Stability of Vitamin Es in Powder Concentrate,[1]; 30 days,1.80 mg/g powder
same,Stability of Vitamin Es in Powder Concentrate,[1]; 60 days,1.77 mg/g powder
same,Stability of Vitamin Es in Powder Concentrate,[1]; 90 days,1.83 mg/g powder
same,Stability of Vitamin Es in Powder Concentrate,[1]; 120 days,1.83 mg/g powder
same,Stability of Vitamin Es in Powder Concentrate,[1]; 150 days,1.89 mg/g powder
same,Stability of Vitamin Es in Powder Concentrate,[1]; 180 days,1.77 mg/g powder
same,Stability of Vitamin Es in Powder Concentrate,[1]; 210 days,1.80 mg/g powder
same,Stability of Vitamin Es in Powder Concentrate,[1]; 240 days,1.84 mg/g powder
same,Stability of Vitamin Es in Powder Concentrate,[1]; 270 days,1.87 mg/g powder
same,Stability of Vitamin Es in Powder Concentrate,[1]; 300 days,1.84 mg/g powder
same,Stability of Vitamin Es in Powder Concentrate,[1]; 330 days,1.83 mg/g powder
same,Stability of Vitamin Es in Powder Concentrate,[1]; 360 days,1.79 mg/g powder
same,Stability of Vitamin Es in Powder Concentrate,[1]; 390 days,1.87 mg/g powder
same,Stability of Vitamin Es in Powder Concentrate,[1]; 420 days,1.82 mg/g powder
same,Stability of Vitamin Es in Powder Concentrate,[1]; 450 days,1.80 mg/g powder
same,Stability of Vitamin Es in Powder Concentrate,[1]; 480 days,1.76 mg/g powder
same,Stability of Vitamin Es in Powder Concentrate,[1]; 510 days,1.76 mg/g powder
same,Stability of Vitamin Es in Powder Concentrate,[1]; 540 days,1.80 mg/g powder
same,Stability of Vitamin Es in Powder Concentrate,[1]; 570 days,1.77 mg/g powder
same,Stability of Vitamin Es in AB White,"[2]; stored at 8° C., 0 days",12.8 µg/mL
same,Stability of Vitamin Es in AB White,"[2]; stored at 8° C., 1 days",11.83 µg/mL
same,Stability of Vitamin Es in AB White,"[2]; stored at 8° C., 2 days",12.31 µg/mL
same,Stability of Vitamin Es in AB White,"[2]; stored at 8° C., 3 days",11.94 µg/mL
same,Stability of Vitamin Es in AB White,"[2]; stored at 8° C., 5 days",11.44 µg/mL
same,Stability of Vitamin Es in AB White,"[2]; stored at 8° C., 8 days",11.48 µg/mL
same,Stability of Vitamin Es in AB White,"[2]; stored at 8° C., 9 days",12.08 µg/mL
same,Stability of Vitamin Es in AB White,"[2]; stored at 8° C., 10 days",12.28 µg/mL
same,Stability of Vitamin Es in AB White,"[2]; stored at 8° C., 11 days",11.94 µg/mL
same,Stability of Vitamin Es in AB White,"[2]; stored at 8° C., 12 days",12.41 µg/mL
same,Stability of Vitamin Es in AB White,"[2]; stored at 8° C., 15 days",11.56 µg/mL
same,Stability of Vitamin Es in AB White,"[2]; stored at 8° C., 16 days",12.09 µg/mL
same,Stability of Vitamin Es in AB White,"[2]; stored at 8° C., 17 days",11.60 µg/mL
same,Stability of Vitamin Es in AB White,"[2]; stored at 8° C., 18 days",11.59 µg/mL
same,Stability of Vitamin Es in AB White,"[2]; stored at 8° C., 19 days",11.89 µg/mL
same,Stability of Vitamin Es in AB White,"[2]; stored at 8° C., 22 days",11.81 µg/mL
same,Stability of Vitamin Es in AB White,"[2]; stored at 8° C., 23 days",11.46 µg/mL
same,Stability of Vitamin Es in AB White,"[2]; stored at 8° C., 24 days",11.75 µg/mL
same,Stability of Vitamin Es in AB White,"[2]; stored at 8° C., 25 days",12.41 µg/mL
same,Stability of Vitamin Es in AB White,"[2]; stored at 8° C., 26 days",11.64 µg/mL
same,Stability of Vitamin Es in AB White,"[2]; stored at 8° C., 29 days",12.43 µg/mL
same,Stability of Vitamin Es in AB White,"[2]; stored at 8° C., 30 days",11.78 µg/mL
same,Stability of Vitamin Es in AB White,"[2]; stored at 8° C., 60 days",12.18 µg/mL
same,Stability of Vitamin Es in AB White,"[2]; stored at 8° C., 90 days",11.33 µg/mL
same,Stability of Vitamin Es in AB White,"[2]; stored at 8° C., 120 days",11.31 µg/mL
same,Stability of Vitamin Es in AB White,"[2]; stored at 8° C., 150 days",12.29 µg/mL
same,Stability of Vitamin Es in AB White,"[2]; stored at 8° C., 180 days",11.74 µg/mL
same,Stability of Vitamin Es in AB White,"[2]; stored at 8° C., 210 days",11.40 µg/mL
same,Stability of Vitamin Es in AB White,"[2]; stored at 8° C., 240 days",11.70 µg/mL
same,Stability of Vitamin Es in AB White,"[2]; stored at 8° C., 270 days",11.24 µg/mL
same,Stability of Vitamin Es in AB White,"[2]; stored at 8° C., 300 days",11.53 µg/mL
same,Stability of Vitamin Es in AB White,"[2]; stored at 8° C., 330 days",11.81 µg/mL
same,Stability of Vitamin Es in AB White,"[2]; stored at 8° C., 360 days",11.10 µg/mL
same,Stability of Vitamin Es in AB White,"[2]; stored at 8° C., 390 days",11.34 µg/mL
same,Stability of Vitamin Es in AB White,"[2]; stored at 8° C., 420 days",11.30 µg/mL
same,Stability of Vitamin Es in AB White,"[2]; stored at 8° C., 450 days",11.28 µg/mL
same,Stability of Vitamin Es in AB White,"[2]; stored at 8° C., 480 days",10.58 µg/mL
same,Stability of Vitamin Es in AB White,"[2]; stored at 8° C., 510 days",10.83 µg/mL
same,Stability of Vitamin Es in AB White,"[2]; stored at 8° C., 540 days",10.58 µg/mL
same,Stability of Vitamin Es in AB White,"[2]; stored at 8° C., 570 days",10.93 µg/mL
same,Stability of Vitamin Es in AB White,"[2]; stored at 21-25° C., 0 days",12.8 µg/mL
same,Stability of Vitamin Es in AB White,"[2]; stored at 21-25° C., 1 days",12.6 µg/mL
same,Stability of Vitamin Es in AB White,"[2]; stored at 21-25° C., 2 days",12.3 µg/mL
same,Stability of Vitamin Es in AB White,"[2]; stored at 21-25° C., 3 days",12.0 µg/mL
same,Stability of Vitamin Es in AB White,"[2]; stored at 21-25° C., 5 days",12.0 µg/mL
same,Stability of Vitamin Es in AB White,"[2]; stored at 21-25° C., 8 days",11.9 µg/mL
same,Stability of Vitamin Es in AB White,"[2]; stored at 21-25° C., 9 days",12.7 µg/mL
same,Stability of Vitamin Es in AB White,"[2]; stored at 21-25° C., 10 days",12.5 µg/mL
same,Stability of Vitamin Es in AB White,"[2]; stored at 21-25° C., 11 days",11.8 µg/mL
same,Stability of Vitamin Es in AB White,"[2]; stored at 21-25° C., 12 days",11.6 µg/mL
same,Stability of Vitamin Es in AB White,"[2]; stored at 21-25° C., 15 days",12.6 µg/mL
same,Stability of Vitamin Es in AB White,"[2]; stored at 21-25° C., 16 days",11.7 µg/mL
same,Stability of Vitamin Es in AB White,"[2]; stored at 21-25° C., 17 days",13.0 µg/mL
same,Stability of Vitamin Es in AB White,"[2]; stored at 21-25° C., 18 days",12.9 µg/mL
same,Stability of Vitamin Es in AB White,"[2]; stored at 21-25° C., 19 days",12.3 µg/mL
same,Stability of Vitamin Es in AB White,"[2]; stored at 21-25° C., 22 days",12.2 µg/mL
same,Stability of Vitamin Es in AB White,"[2]; stored at 21-25° C., 23 days",12.3 µg/mL
same,Stability of Vitamin Es in AB White,"[2]; stored at 21-25° C., 24 days",12.5 µg/mL
same,Stability of Vitamin Es in AB White,"[2]; stored at 21-25° C., 25 days",12.4 µg/mL
same,Stability of Vitamin Es in AB White,"[2]; stored at 21-25° C., 26 days",12.2 µg/mL
same,Stability of Vitamin Es in AB White,"[2]; stored at 21-25° C., 29 days",12.4 µg/mL
same,Stability of Vitamin Es in AB White,"[2]; stored at 21-25° C., 30 days",12.0 µg/mL
same,Stability of Vitamin Es in AB White,"[2]; stored at 21-25° C., 60 days",11.9 µg/mL
same,Stability of Vitamin Es in AB White,"[2]; stored at 21-25° C., 90 days",11.9 µg/mL
same,Stability of Vitamin Es in AB White,"[2]; stored at 21-25° C., 120 days",12.1 µg/mL
same,Stability of Vitamin Es in AB White,"[2]; stored at 21-25° C., 150 days",12.7 µg/mL
same,Stability of Vitamin Es in AB White,"[2]; stored at 21-25° C., 180 days",11.6 µg/mL
same,Stability of Vitamin Es in AB White,"[2]; stored at 21-25° C., 210 days",11.5 µg/mL
same,Stability of Vitamin Es in AB White,"[2]; stored at 21-25° C., 240 days",11.5 µg/mL
same,Stability of Vitamin Es in AB White,"[2]; stored at 21-25° C., 270 days",11.2 µg/mL
same,Stability of Vitamin Es in AB White,"[2]; stored at 21-25° C., 300 days",11.4 µg/mL
same,Stability of Vitamin Es in AB White,"[2]; stored at 21-25° C., 330 days",11.3 µg/mL
same,Stability of Vitamin Es in AB White,"[2]; stored at 21-25° C., 360 days",11.5 µg/mL
same,Stability of Vitamin Es in AB White,"[2]; stored at 21-25° C., 390 days",11.3 µg/mL
same,Stability of Vitamin Es in AB White,"[2]; stored at 21-25° C., 420 days",11.6 µg/mL
same,Stability of Vitamin Es in AB White,"[2]; stored at 21-25° C., 450 days",11.5 µg/mL
same,Stability of Vitamin Es in AB White,"[2]; stored at 21-25° C., 480 days",10.8 µg/mL
same,Stability of Vitamin Es in AB White,"[2]; stored at 21-25° C., 510 days",10.9 µg/mL
same,Stability of Vitamin Es in AB White,"[2]; stored at 21-25° C., 540 days",10.9 µg/mL
same,Stability of Vitamin Es in AB White,"[2]; stored at 21-25° C., 570 days",10.6 µg/mL
